The values below come from paper PMC1925065, “Functional characterization of two melanocortin (MC) receptors in lamprey showing orthology to the MC1 and MC4 receptor subtypes” (BMC Evolutionary Biology, 2007).

Read-outs that look alike come from different tables or passages of the source. Bridge positions count the residues as written; N and C are the ends. Square brackets hold non-standard residues; d marks the D form. Peptide text beside a SMILES is read from it. d2Nal = N[C@H](Cc1ccc2ccccc2c1)C(=O)O; Nle = CCCC[C@H](N)C(=O)O

In one test the target is human MC5. As to conditions: competition, mean ± SEM, cited from earlier work.
The target of the next test is human MC3. The conditions noted are these: competition, mean ± SEM, cited from earlier work.
Another test has as its target T1, lamprey MCa receptor (Lampetra fluviatilis, UniProt A6XB56).
T1 sequence (A6XB56 1-341): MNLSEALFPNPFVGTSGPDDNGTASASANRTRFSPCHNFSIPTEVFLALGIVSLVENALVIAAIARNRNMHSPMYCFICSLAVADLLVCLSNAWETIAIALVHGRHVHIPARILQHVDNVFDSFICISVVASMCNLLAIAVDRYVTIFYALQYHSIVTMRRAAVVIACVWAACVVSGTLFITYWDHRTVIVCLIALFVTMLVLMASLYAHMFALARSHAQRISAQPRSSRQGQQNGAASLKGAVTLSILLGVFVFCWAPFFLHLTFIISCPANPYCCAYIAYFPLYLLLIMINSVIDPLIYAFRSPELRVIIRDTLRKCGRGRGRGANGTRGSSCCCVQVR
The experiment in a line: Radioligand binding assay (saturation and competition, [125I] NDP-MSH), lamprey MCa. As to conditions: for affinity for lamprey MCa compared to the human MC1 and MC3 receptors: p < 0.01 for α-MSH, γ-MSH, ACTH(1–39). Further details: species or system river lamprey. As for the experimental part:
HEK-293 (human embryonic kidney) cells with Epstein-Barr nuclear antigen (EBNA) grown to 50–70% confluence were transfected with 10 μg of the construct using FuGENE-6 Transfection Reagent (Roche, Sweden) according to the manufacturers' instruction. The cells were grown in Dulbeccos Modified Eagle Media and F-12 Nutrient Mixture (D-MEM/F-12) (1:1) with GlutaMAX I containing 10% foetal bovine serum, 100 u/ml penicillin, 100 μg/ml streptomycin, 2.5 ug/ml amphotericin B, and 250 μg/ml geneticin G-418 (Invitrogen); in humidified atmosphere of 95% air and 5% CO2 at 37°C. Semi-stable cell lines, expressing target receptor, were obtained by selecting for growth in the presence of 100 μg/ml hygromycin B (Invitrogen), first added 24 hours after transfection.
HEK-293 EBNA cells expressing MC receptors were harvested from plate and resuspended in binding buffer composed of 25 mM HEPES, 2.5 mM CaCl2, 1 mM MgCl2 and 0.2% bacitracin, pH adjusted to 7.4. To obtain the membranes, cells were mechanically homogenized with Ultra Turrax. Cell suspensions were centrifuged for 3 min at 190 g and membranes were collected from the supernatant by centrifugation for 15 min at 20000 g. The pellet was resuspended in binding buffer. The binding was performed in a final volume of 100 μl for 2 h at room temperature. Saturation experiments were carried out with serial dilutions of [^125I] […] Competition experiments were performed with constant 0.6 nM concentration of [^125I] […] The membranes were collected by filtration on Glass Fibre filters, Filtermat A (Perkin Elmer, USA), using a TOMTEC Mach III cell harvester (Orange, CT, USA). The filters were washed with 5 ml per well of 50 mM Tris HCl (pH 7.4) and dried at 50°C. MeltiLex A scintillator sheets (Perkin Elmer, USA) were melted on dried filters and radioactivity was counted with an automatic Microbeta counter 1450 (Perkin Elmer). Binding assays were performed in duplicate with at least three independent experiments. […] The results were analysed with Prism 3.0 software package (GraphPad, USA). Binding affinities were compared with one-way ANOVA Tukey's post-hoc tests.

A further test has as its target human MC1. The conditions noted are these: competition, mean ± SEM, cited from earlier work.
A further test deals with human MC4. As to conditions: competition, mean ± SEM, cited from earlier work.
[1] abbreviates: comparison with previously published human values.

For the molecule `CCCC[C@@H]1NC(=O)[C@@H](NC(C)=O)CSSC[C@@H](C(N)=O)NC(=O)CNC(=O)[C@H](Cc2c[nH]c3ccccc23)NC(=O)[C@H](CCCNC(=N)N)NC(=O)[C@@H](Cc2ccc3ccccc3c2)NC(=O)[C@H](Cc2c[nH]cn2)NC(=O)[C@H](CCCNC(=N)N)NC1=O` [HS024] (Ac-C[Nle]RH[d2Nal]RWGC-NH2; disulfide 1-9 (inferred); N-terminus and C-terminus assumed), the Ki (usually the dissociation constant of the complex between target and ligand, obtained from inhibition or displacement) was 3.29 ± 1.15 nM on human MC5 (ref [41]); 15.1 ± 3 nM on human MC3 (ref [42]); 72.5 ± 1.4 nM on lamprey MCa receptor; 18.6 ± 3.3 nM on human MC1 (ref [41]); 0.341 ± 0.089 nM on human MC4 (ref [42]). Moreover, at lamprey MCa receptor (setting [1]), the “affinity for lamprey MCa compared to the human MC1, MC3, MC4 and MC5 receptors” value was “clearly lower affinities”.

“β-melanocyte stimulating hormone [β-MSH]”: the Ki on human MC5 (ref [39]) was 14400 ± 1670 nM; on human MC3 (ref [42]), 15.1 ± 3.4 nM; at human MC1 (ref [38]), 2.53 ± 0.93 nM; at human MC4 (ref [42]) it was 387 ± 208 nM. In addition, the “affinity for lamprey MCa compared to the human MC4 and MC5 receptors” value on lamprey MCa receptor (setting [1]) is on record as “clearly higher affinities”. In addition, at lamprey MCa receptor (setting [1]), the “affinity for lamprey MCa compared to the human MC1 and MC3 receptors” value is given as “clearly lower affinities”.

For the molecule `CSCC[C@H](NC(=O)[C@H](CO)NC(=O)[C@H](Cc1ccc(O)cc1)NC(=O)[C@@H](N)CO)C(=O)N[C@@H](CCC(=O)O)C(=O)N[C@@H](Cc1cnc[nH]1)C(=O)N[C@@H](Cc1ccccc1)C(=O)N[C@@H](CCCNC(=N)N)C(=O)N[C@@H](Cc1c[nH]c2ccccc12)C(=O)NCC(=O)N[C@@H](CCCCN)C(=O)N1CCC[C@H]1C(=O)N[C@H](C(=O)NCC(=O)N[C@@H](CCCCN)C(=O)N[C@@H](CCCCN)C(=O)N[C@@H](CCCNC(=N)N)C(=O)N[C@@H](CCCNC(=N)N)C(=O)N1CCC[C@H]1C(=O)N[C@H](C(=O)N[C@@H](CCCCN)C(=O)N[C@H](C(=O)N[C@@H](Cc1ccc(O)cc1)C(=O)N1CCC[C@H]1C(=O)N[C@@H](CC(N)=O)C(=O)NCC(=O)N[C@@H](C)C(=O)N[C@@H](CCC(=O)O)C(=O)N[C@@H](CC(=O)O)C(=O)N[C@@H](CCC(=O)O)C(=O)N[C@@H](CO)C(=O)N[C@@H](C)C(=O)N[C@@H](CCC(=O)O)C(=O)N[C@@H](C)C(=O)N[C@@H](Cc1ccccc1)C(=O)N1CCC[C@H]1C(=O)N[C@@H](CC(C)C)C(=O)N[C@@H](CCC(=O)O)C(=O)N[C@@H](Cc1ccccc1)C(=O)O)C(C)C)C(C)C)C(C)C` [ACTH (1–39), adrenocorticotropic hormone] (H-SYSMEHFRWGKPVGKKRRPVKVYPNGAEDESAEAFPLEF-OH), the Ki on lamprey MCa receptor came out at 291 ± 20 nM.

On to `CSCC[C@H](NC(=O)[C@@H](NC(=O)[C@@H](N)Cc1ccc(O)cc1)C(C)C)C(=O)NCC(=O)N[C@@H](Cc1c[nH]cn1)C(=O)N[C@@H](Cc1ccccc1)C(=O)N[C@@H](CCCNC(=N)N)C(=O)N[C@@H](Cc1c[nH]c2ccccc12)C(=O)N[C@@H](CC(=O)O)C(=O)N[C@@H](CCCNC(=N)N)C(=O)N[C@@H](Cc1ccccc1)C(N)=O` [γ1-MSH], for which the Ki was 42600 ± 6600 nM on human MC5 (ref [39]); 7.45 ± 2.55 nM at human MC3 (ref [42]); 684 ± 7 nM on lamprey MCa receptor; 2.68 ± 0.35 nM on human MC1 (ref [39]); 51800 ± 12000 nM on human MC4 (ref [42]). For the same molecule, the “affinity for lamprey MCa compared to the human MC4 and MC5 receptors” value at lamprey MCa receptor (setting [1]) is given as “clearly higher affinities”. For the same molecule, at lamprey MCa receptor (setting [1]), the “affinity for lamprey MCa compared to the human MC1 and MC3 receptors” value is “clearly lower affinities”.

On to `CSCC[C@H](NC(=O)[C@H](CO)NC(=O)[C@H](Cc1ccc(O)cc1)NC(=O)[C@@H](N)CO)C(=O)N[C@@H](CCC(=O)O)C(=O)N[C@@H](Cc1c[nH]cn1)C(=O)N[C@@H](Cc1ccccc1)C(=O)N[C@@H](CCCNC(=N)N)C(=O)N[C@@H](Cc1c[nH]c2ccccc12)C(=O)NCC(=O)N[C@@H](CCCCN)C(=O)N1CCC[C@H]1C(=O)N[C@H](C(=O)NCC(=O)N[C@@H](CCCCN)C(=O)N[C@@H](CCCCN)C(=O)N[C@@H](CCCNC(=N)N)C(=O)N[C@@H](CCCNC(=N)N)C(=O)N1CCC[C@H]1C(=O)N[C@H](C(=O)N[C@@H](CCCCN)C(=O)N[C@H](C(=O)N[C@@H](Cc1ccc(O)cc1)C(=O)N1CCC[C@H]1C(=O)N[C@@H](CC(N)=O)C(=O)NCC(=O)N[C@@H](C)C(=O)N[C@@H](CCC(=O)O)C(=O)N[C@@H](CC(=O)O)C(=O)N[C@@H](CCC(=O)O)C(=O)N[C@@H](CO)C(=O)N[C@@H](C)C(=O)N[C@@H](CCC(=O)O)C(=O)N[C@@H](C)C(=O)N[C@@H](Cc1ccccc1)C(=O)N1CCC[C@H]1C(=O)N[C@@H](CC(C)C)C(=O)N[C@@H](CCC(=O)O)C(=O)N[C@@H](Cc1ccccc1)C(=O)O)C(C)C)C(C)C)C(C)C` [ACTH (1–39), adrenocorticotropic hormone] (H-SYSMEHFRWGKPVGKKRRPVKVYPNGAEDESAEAFPLEF-OH; N-terminus and C-terminus assumed), for which the Ki on human MC5 (ref [40]) was 4920 ± 610 nM; at human MC3 (ref [40]), 135 ± 22 nM; on human MC1 (ref [40]), 3.95 ± 0.67 nM; on human MC4 (ref [40]) it was 2170 ± 120 nM. Also, the “affinity for lamprey MCa compared to the human MC4 and MC5 receptors” value on lamprey MCa receptor (setting [1]) is “clearly higher affinities”. The “affinity for lamprey MCa compared to the human MC1 and MC3 receptors” value on lamprey MCa receptor (setting [1]) was “clearly lower affinities”.

Regarding `CSCC[C@H](NC(=O)[C@H](CO)NC(=O)[C@H](Cc1ccc(O)cc1)NC(=O)[C@@H](N)CO)C(=O)N[C@@H](CCC(=O)O)C(=O)N[C@@H](Cc1c[nH]cn1)C(=O)N[C@@H](Cc1ccccc1)C(=O)N[C@@H](CCCNC(=N)N)C(=O)N[C@@H](Cc1c[nH]c2ccccc12)C(=O)NCC(=O)N[C@@H](CCCCN)C(=O)N1CCC[C@H]1C(=O)N[C@H](C(=O)NCC(=O)N[C@@H](CCCCN)C(=O)N[C@@H](CCCCN)C(=O)N[C@@H](CCCNC(=N)N)C(=O)O)C(C)C` [ACTH (1–17)], the Ki is 4240 ± 1200 nM on human MC5 (ref [40]); 14 ± 4.5 nM at human MC3 (ref [40]); 51.1 ± 3.2 nM on lamprey MCa receptor; 0.23 ± 0.061 nM at human MC1 (ref [40]); 419 ± 62 nM at human MC4 (ref [40]). In addition, the “affinity for lamprey MCa compared to the human MC4 and MC5 receptors” value on lamprey MCa receptor (setting [1]) is reported as “clearly higher affinities”. On lamprey MCa receptor (setting [1]), the “affinity for lamprey MCa compared to the human MC1 and MC3 receptors” value was “clearly lower affinities”.
